Test results reported in US6716829B2, “Aldosterone antagonist and cyclooxygenase-2 inhibitor combination therapy to prevent or treat inflammation-related cardiovascular disorders” (Pharmacia Corporation, priority 2000, dated 2004).
Several values for one entry are separate records, joined by “and”; a condition that tells them apart may be missing. Identical values can stand only once.

Test system: Collagen III
Experiment: Assay C: Collagen III mRNA by TaqMan RT-PCR
Type: in vivo, Male Sprague-Dawley rats
Details: for Collagen-III (AU): collagen type III mRNA relative to cyclophilin, eplerenone dose 100 mg/kg/day
Method: The procedure of Assay B was expanded upon in a further study. […] Myocardial tissue from animals in each treatment group was examined after 7, 14, or 30 days of treatment.
Potassium chloride supplementation was added to the saline solution in order to prevent the potential hypokalemia associated with aldosterone excess.
At the time of the surgery, an Alzet 2002 osmotic minipump (Alza Corp., Palo Alto, Calif.) containing either vehicle (9% ethanol/87% propylene glycol/4% dH2O) or 1.0 mg/mL d-aldosterone (Sigma Chemical, St. Louis, Mo.) was inserted subcutaneously at the nape of the neck. Aldosterone was administered at a dose of 0.75 µg/hour. […] Animals were sacrificed from each group (n=8-13) after 7, 14, or 30 days of treatment.
The fluorogenic 5′-nuclease assay (TaqMan PCR) using Applied Biosystems' 7700 Sequence Detection System (Applied Biosystems, Foster City, Calif.) allowed for real time detection/quantitation of a specific gene by monitoring the increase in fluorescence of a gene-specific, dye-labeled oligonucleotide probe. Probes for target and reference genes were labeled at the 5′-end with a 6-carboxyfluorescein (6FAM) reporter dye and at the 3′-end with a 6-carboxy-N,N,N′,N′-tetramethylrhodamine (TAMRA) quencher dye. When the probe was annealed to the target gene, fluorescence of 6FAM was prevented by the close proximity of TAMRA. The exonuclease activity of Taq polymerase released the dyes from the oligonucleotide probe by displacing the probe from the target sequence resulting in fluorescence excitation in direct proportion to the amount of target message present. Data analysis was performed using the Sequence Detection System software from Applied Biosystems.
Primers and probes were designed using Oligo Primer Analysis Software, Version 5.0 (National Biosciences Inc. (NBI)-Wojciech Rychlik, Cascade, Colo.). Primers were synthesized by Life Technologies (Grand Island, N.Y.) and probes were synthesized by Applied Biosystems. Primer/probe sets were designed from known sequences of rat genes to be analyzed. All target gene values were normalized to a reference gene, constitutively expressed cyclophilin. Primer/probe sets sequences can be found in Table 8
RNA was extracted from frozen (−70° C.) left ventricle (LV) tissue (approximately 10-20 mg) using 1.5 mL RNA-STAT 60 according to manufacturer's instructions (Leedo Medical Laboratories, Inc., Houston, Tex.). Briefly, tissues were homogenized using a tissue homogenizer equipped with a 5 mm probe (Ultra-Turrax T8 Homogenizer, IKA Works, Inc. Wilmington, N.C.). Following homogenization, an equal volume of molecular grade chloroform (Sigma Chemical Co., St. Louis, Mo.) was incubated with periodic mixing for 10 min at room temperature. Samples were centrifuged at 12,000 g for 10 min and RNA was precipitated from the top layer by adding an equal volume of molecular grade isopropanol (Sigma Chemical Co.) followed by an overnight incubation at −80° C. RNA was pelleted by centrifugation at 12,000 g, washed with 75% ethanol, and solubilized in nuclease-free water (Promega, Madison, Wis.).
Double-stranded cDNA was synthesized by adding 400 ng RNA (4 uL) to a final volume of 20 uL containing 15% nuclease-free water (Promega, Madison, Wis.), 1×RT Buffer (Life Technologies, Grand Island, N.Y.), 10 mM DTT (Life Technologies), 0.5 mM each of dATP, dTTP, dGTP, dCTP (PE Biosystems, Foster City, Calif.), 2.5 μM Oligo d(T)15 (Oligo Therapeutics, Inc., Wilsonville, Oreg.), 40 units RNAsin (Promega), and 200 units SuperScript II Reverse Transcriptase (Life Technologies). The reactions were performed in thin-walled reaction tubes with caps (Applied Biosystems) to ensure accurate reaction temperatures.

[1] = mean ± SEM after 7 days of treatment
[2] = mean ± SEM after 14 days of treatment
[3] = mean ± SEM after 30 days of treatment
[4] = group mean, data used for Table 15 (14 days of treatment)
[5] = group mean, data used for Table 16 (30 days of treatment)

C[C@]12CCC(=O)C=C1CC[C@@H]1[C@@H]2[C@@H](O)C[C@]2(C=O)[C@@H](C(=O)CO)CC[C@@H]12 [Aldosterone]
Collagen-III (AU) [1]: 1.42 ± 0.12 AU
Collagen-III (AU) [2]: 1.08 ± 0.14 AU
Collagen-III (AU) [3]: 1.39 ± 0.20 AU
Collagen-III mRNA (AU) [4]: 1.08 AU
Collagen-III mRNA (AU) [5]: 1.39 AU
Collagen-III mRNA (AU) (individual rats, data used for Table 15 (14 days of treatment), incl. rat marked * excluded from statistics, listed as Aldosterone + salt): 0.76 AU and 1.80 AU and 0.44 AU and 1.39 AU and 1.17 AU and 1.24 AU and 1.06 AU and 1.31 AU and 0.59 AU and 1.22 AU
Collagen-III mRNA (AU) (individual rats, data used for Table 16 (30 days of treatment), incl. rat marked * excluded from statistics, listed as Aldosterone + salt): 0.75 AU and 0.58 AU and 1.99 AU and 0.72 AU and 2.04 AU and 1.43 AU and 1.82 AU and 1.89 AU and 1.28 AU

COC(=O)[C@@H]1CC2=CC(=O)CC[C@]2(C)[C@@]23O[C@@H]2C[C@@]2(C)[C@@H](CC[C@@]24CCC(=O)O4)[C@H]13 [Eplerenone]
Collagen-III (AU) [1]: 1.09± 0.21 AU
Collagen-III (AU) [2]: 1.61 ± 0.26 AU
Collagen-III (AU) [3]: 1.53 ± 0.23 AU
Collagen-III mRNA (AU) [4]: 1.61 AU
Collagen-III mRNA (AU) [5]: 1.53 AU
Collagen-III mRNA (AU) (individual rats, data used for Table 15 (14 days of treatment), incl. rat marked * excluded from statistics, listed as Eplerenone + aldosterone + salt): 0.60 AU (2×) and 1.19 AU and 1.16 AU and 1.24 AU and 1.70 AU and 1.81 AU and 1.61 AU and 2.21 AU and 1.80 AU and 3.77 AU
Collagen-III mRNA (AU) (individual rats, data used for Table 16 (30 days of treatment), incl. rat marked * excluded from statistics, listed as Eplerenone + aldosterone + salt): 0.95 AU and 0.72 AU and 1.37 AU and 0.89 AU and 1.26 AU and 1.87 AU and 1.66 AU and 2.89 AU and 2.16 AU and 0.73 AU
